Results as given in PubChem BioAssay AID248 (DTP/NCI, 2004).
Several values for one entry are separate records, joined by “and”; a condition that tells them apart may be missing. Identical values can stand only once. Toxic doses and inconclusive results are not listed. Rule as the data show it: active = T/C of 150% or more; inactive = T/C below 125%.

Tested on: L1210 leukemia ip in BDF1 mice, survival T/C
Experiment: NCI In Vivo Anticancer Drug Screen. Data for tumor model L1210 Leukemia (intraperitoneal) in B6D2F1 (BDF1) mice
Details: endpoint: mean survival time, higher = longer survival
Outline: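 Ratio derived from survival: compound-dosed mice over vehicle-dosed mice, all bearing a transplantable tumor.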

[1] = dose: 100.0 mg/kg/injection, schedule: Q04DX002 (ip), vehicle: Klucel (hydroxypropylcellulose) (HPC)
[2] = dose: 200.0 mg/kg/injection, schedule: Q04DX002 (ip), vehicle: Klucel (hydroxypropylcellulose) (HPC)
[3] = dose: 100.0 mg/kg/injection, schedule: Q04DX003 (ip), vehicle: saline with Tween-80
[4] = dose: 200.0 mg/kg/injection, schedule: Q04DX003 (ip), vehicle: saline with Tween-80
[5] = dose: 400.0 mg/kg/injection, schedule: Q04DX003 (ip), vehicle: saline with Tween-80
[6] = dose: 100.0 mg/kg/injection, schedule: Q01DX001 (ip), vehicle: saline
[7] = dose: 200.0 mg/kg/injection, schedule: Q01DX001 (ip), vehicle: saline
[8] = dose: 400.0 mg/kg/injection, schedule: Q01DX001 (ip), vehicle: saline
[9] = dose: 100.0 mg/kg/injection, schedule: Q01DX009 (ip), vehicle: saline with Tween-80
[10] = dose: 400.0 mg/kg/injection, schedule: Q01DX009 (ip), vehicle: saline with Tween-80
[11] = dose: 400.0 mg/kg/injection, schedule: Q04DX002 (ip), vehicle: Klucel (hydroxypropylcellulose) (HPC)
[12] = dose: 50.0 mg/kg/injection, schedule: Q01DX001 (ip), vehicle: carboxymethylcellulose (CMC)
[13] = dose: 100.0 mg/kg/injection, schedule: Q01DX001 (ip), vehicle: carboxymethylcellulose (CMC)
[14] = dose: 200.0 mg/kg/injection, schedule: Q01DX001 (ip), vehicle: carboxymethylcellulose (CMC)
[15] = dose: 100.0 mg/kg/injection, schedule: Q01DX009 (ip), vehicle: Klucel (hydroxypropylcellulose) (HPC)
[16] = dose: 200.0 mg/kg/injection, schedule: Q01DX009 (ip), vehicle: Klucel (hydroxypropylcellulose) (HPC)

Measured: T/C

O=C(CC(=O)Nc1ccc(C2=NCCCN2)cc1)Nc1ccc(C2=NCCCN2)cc1
inactive: dose: 6.25 mg/kg/injection, schedule: Q01DX Z (ip), vehicle: water 110 % of control | dose: 12.5 mg/kg/injection, schedule: Q01DX Z (ip), vehicle: water 113 % of control | dose: 25.0 mg/kg/injection, schedule: Q01DX Z (ip), vehicle: water 101 % of control | dose: 50.0 mg/kg/injection, schedule: Q01DX Z (ip), vehicle: water 104 % of control | dose: 62.5 mg/kg/injection, schedule: Q01DX Z (ip), vehicle: water 96 % of control | dose: 125.0 mg/kg/injection, schedule: Q01DX Z (ip), vehicle: water 102 % of control | dose: 250.0 mg/kg/injection, schedule: Q01DX Z (ip), vehicle: water 97 % of control

O=C(O)C12CCC1(Cl)CC2 (centres undefined)
inactive: dose: 50.0 mg/kg/injection, schedule: Q04DX002 (ip), vehicle: Klucel (hydroxypropylcellulose) (HPC) 104 % of control | [1] 97 % of control | [2] 108 % of control

O=C1C2C3C=CC(C3)C2C(=O)N1c1ccccc1 (centres undefined)
inactive: [3] 96 % of control | [4] 101 % of control | [5] 107 % of control

CCOCCOC(=O)c1ccc(C(=N)OCC)cc1
inactive: [6] 90 % of control | [7] 90 % of control | [8] 86 % of control

O=c1cc(-c2ccccc2)[nH]c(=S)[nH]1
inactive: [9] 94 % of control | [3] 101 % of control | [4] 103 % of control | [10] 89 % of control | [5] 106 % of control

O=C1C2C3c4ccccc4C(C2C(=O)N1c1ccc(Cl)cc1)[n+]1ccccc13 (centres undefined)
inactive: dose: 75.0 mg/kg/injection, schedule: Q01DX001 (ip), vehicle: other 96 % of control | dose: 150.0 mg/kg/injection, schedule: Q01DX001 (ip), vehicle: other 103 % of control

O=C(O)C1CCC(C(=O)c2ccc([N+](=O)[O-])cc2)CC1 (centres undefined)
inactive: dose: 100.0 mg/kg/injection, schedule: Q04DX003 (ip), vehicle: gum acacia 97 % of control | dose: 200.0 mg/kg/injection, schedule: Q04DX003 (ip), vehicle: gum acacia 93 % of control | dose: 400.0 mg/kg/injection, schedule: Q04DX003 (ip), vehicle: gum acacia 88 % of control

O=C1CCC(N2C(=O)C3C4CCC(O4)C3C2=O)C(=O)N1 (centres undefined)
inactive: [1] 103 % of control | [3] 96 % of control | [2] 113 % of control | [4] 100 % of control | [11] 103 % of control | [5] 96 % of control

O=C(Nc1nccs1)Nc1cc(C(F)(F)F)ccc1Cl
inactive: [12] 103 % of control | dose: 50.0 mg/kg/injection, schedule: Q01DX009 (ip), vehicle: carboxymethylcellulose (CMC) 98 % of control and 109 % of control | dose: 50.0 mg/kg/injection, schedule: Q04DX003 (ip), vehicle: carboxymethylcellulose (CMC) 102 % of control | [13] 97 % of control | dose: 100.0 mg/kg/injection, schedule: Q01DX009 (ip), vehicle: carboxymethylcellulose (CMC) 101 % of control and 88 % of control | dose: 100.0 mg/kg/injection, schedule: Q04DX002 (ip), vehicle: carboxymethylcellulose (CMC) 97 % of control and 101 % of control | dose: 100.0 mg/kg/injection, schedule: Q04DX003 (ip), vehicle: carboxymethylcellulose (CMC) 97 % of control | [14] 98 % of control | dose: 200.0 mg/kg/injection, schedule: Q04DX002 (ip), vehicle: carboxymethylcellulose (CMC) 87 % of control | dose: 200.0 mg/kg/injection, schedule: Q04DX003 (ip), vehicle: carboxymethylcellulose (CMC) 96 % of control

Nc1ccc(N=Nc2ccc(O)cc2)c(N)n1
inactive: [6] 92 % of control | [7] 107 % of control

NS(=O)(=O)c1ccc(NC(=O)Nc2ccccc2Cl)cc1
inactive: dose: 100.0 mg/kg/injection, schedule: Q01DX001 (ip), vehicle: Klucel (hydroxypropylcellulose) (HPC) 90 % of control | [15] 100 % of control and 90 % of control | [1] 97 % of control and 108 % of control | dose: 100.0 mg/kg/injection, schedule: Q04DX003 (ip), vehicle: Klucel (hydroxypropylcellulose) (HPC) 106 % of control | dose: 200.0 mg/kg/injection, schedule: Q01DX001 (ip), vehicle: Klucel (hydroxypropylcellulose) (HPC) 88 % of control | [16] 94 % of control and 103 % of control | [2] 93 % of control and 108 % of control | dose: 200.0 mg/kg/injection, schedule: Q04DX003 (ip), vehicle: Klucel (hydroxypropylcellulose) (HPC) 106 % of control | dose: 400.0 mg/kg/injection, schedule: Q01DX001 (ip), vehicle: Klucel (hydroxypropylcellulose) (HPC) 92 % of control | dose: 400.0 mg/kg/injection, schedule: Q01DX009 (ip), vehicle: Klucel (hydroxypropylcellulose) (HPC) 98 % of control and 90 % of control | [11] 108 % of control and 92 % of control | dose: 400.0 mg/kg/injection, schedule: Q04DX003 (ip), vehicle: Klucel (hydroxypropylcellulose) (HPC) 105 % of control

CC(C)OP1(=O)OCC(C)O1 (centres undefined)
inactive: [6] 102 % of control | [7] 98 % of control | [8] 102 % of control

Cc1ncc(CO)c(C2NOCc3nccnc32)c1O (centres undefined)
inactive: dose: 3.12 mg/kg/injection, schedule: Q01DX009 (ip), vehicle: saline 93 % of control | dose: 6.25 mg/kg/injection, schedule: Q01DX009 (ip), vehicle: saline 92 % of control | dose: 12.5 mg/kg/injection, schedule: Q01DX009 (ip), vehicle: saline 90 % of control | dose: 12.5 mg/kg/injection, schedule: Q04DX003 (ip), vehicle: saline 95 % of control

CC1C(c2ccccc2)OCCN1CN1C(=O)c2ccccc2C1=O (centres undefined)
inactive: [1] 100 % of control | [2] 104 % of control | [11] 104 % of control

O=C(O)CCCCOc1ccc([N+](=O)[O-])cc1Cl
inactive: [15] 109 % of control | [16] 103 % of control

CN(C)CCOC(=O)c1cccc(CCl)c1
inactive: dose: 45.0 mg/kg/injection, schedule: Q04DX002 (ip), vehicle: saline 106 % of control | dose: 50.0 mg/kg/injection, schedule: Q04DX002 (ip), vehicle: saline 98 % of control | dose: 65.0 mg/kg/injection, schedule: Q04DX002 (ip), vehicle: saline 97 % of control | dose: 100.0 mg/kg/injection, schedule: Q04DX002 (ip), vehicle: saline 97 % of control and 102 % of control | dose: 150.0 mg/kg/injection, schedule: Q04DX002 (ip), vehicle: saline 91 % of control | dose: 200.0 mg/kg/injection, schedule: Q04DX002 (ip), vehicle: saline 94 % of control and 88 % of control | dose: 400.0 mg/kg/injection, schedule: Q04DX002 (ip), vehicle: saline 106 % of control

COc1ccc(OC)c2c1C(=O)c1ccccc1C2=O
inactive: dose: 25.0 mg/kg/injection, schedule: Q01DX009 (ip), vehicle: saline with Tween-80 107 % of control | [12] 102 % of control | dose: 50.0 mg/kg/injection, schedule: Q01DX009 (ip), vehicle: saline with Tween-80 104 % of control | [13] 108 % of control | [9] 104 % of control | [14] 102 % of control | dose: 200.0 mg/kg/injection, schedule: Q01DX009 (ip), vehicle: saline with Tween-80 107 % of control | dose: 400.0 mg/kg/injection, schedule: Q01DX001 (ip), vehicle: carboxymethylcellulose (CMC) 113 % of control | [10] 111 % of control
